Measured values taken from patent publication US4642379A, “Intermediates for anticonvulsant agents” (Eli Lilly and Company, priority 1985, dated 1987).

Tests used:
[1] = tested on: electroshock induced convulsion; experiment: electroshock induced convulsion inhibition assay (E.S.); type: in vivo, mice (Cox standard strain albino male); conditions: for ED50: Mus musculus
Protocol: In the elctroshock induced convulsion inhibition assay (E.S.), the compound to be tested was suspended in acacia and administered by gavage to each of ten Cox standard strain albino male mice (18-24 g) at the dose level being investigated. […] The animals were examined and evaluated immediately after the electroshock for the occurrence of clonic, flexor tonic, or extensor tonic convulsions, or death and the ED50 was determined for each compound as the dose which inhibited the occurrence of extensor tonic convulsions in one half of the animals immediately after the electroshock.

[2] = man; cited from earlier work
[3] = oral dose (gavage), mice, 0.1 second, 50 milliampere electroshock through corneal electrodes, at time of optimal response

| Structure (SMILES) | ED50 [1, 3] [mg/kg] | further results |
| --- | --- | --- |
| CC(=O)Nc1ccc(C(=O)Nc2c(C)cccc2C)cc1 [Example 1, 4-(Acetylamino)-N-(2,6-dimethylphenyl)benzamide] | 3.6 |  |
| CCC(=O)Nc1ccc(C(=O)Nc2c(C)cccc2C)cc1 [Example 2, N-(2,6-dimethylphenyl)-4-[(1-oxopropyl)amino]benzamide] | 10.5 |  |
| Cc1cccc(C)c1NC(=O)c1ccc(NC(=O)C(C)C)cc1 [Example 3, N-(2,6-dimethylphenyl)-4-[(2-methyl-1-oxopropyl)amino]benzamide] | 8.2 |  |
| CC(=O)Nc1ccc(C(=O)N[C@@H](C)c2ccccc2)cc1 [Example 4, (S)-4-(acetylamino)-N-(1-phenylethyl)benzamide] | 22.2 |  |
| CC(=O)Nc1ccc(C(=O)N[C@H](C)c2ccccc2)cc1 [Example 5] |  | Electroshock ED50 (mg/kg) [1, 3]: ca. 100 mg/kg; Time After dosing (minutes) providing an optimal response ([1]; time between oral dosing and electroshock): 60 min |
| CC(=O)Nc1ccc(C(=O)NC(C)c2ccccc2)cc1 (stereo not drawn) [Example 6, 4-(Acetylamino)-N-(1-phenylethyl)benzamide] | 54 |  |
| CC(=O)Nc1ccc(C(=O)Nc2c(C)cccc2C)cc1C [Example 11, 4-(Acetylamino)-N-(2,6-dimethylphenyl)-3-methylbenzamide] | 4.5 |  |
| Cc1cccc(C)c1NC(=O)c1ccc(NC(=O)CN(C)C)cc1 [Example 12, 4-([(Dimethylamino)acetyl]amino)-N-(2,6-dimethylphenyl)benzamide] | 8 |  |
| CNCC(=O)Nc1ccc(C(=O)Nc2c(C)cccc2C)cc1.O=C(O)C(=O)O [Example 13, N-(2,6-dimethylphenyl)-4-([(methylamino)acetyl]amino)benzamide ethanedioate] | 6.3 |  |
| CCN(CC)CC(=O)Nc1ccc(C(=O)Nc2c(C)cccc2C)cc1.O=C(O)C(=O)O [Example 14, 4-([(Diethylamino)acetyl]amino)-N-(2,6-dimethylphenyl)benzamide ethanedioate] | 3.6 |  |
| Cc1cccc(C)c1NC(=O)c1ccc(NC(=O)CN2CCCCC2)cc1 [Example 15, N-[4-([(2,6-Dimethylphenyl)amino]carbonyl)phenyl]-1-piperidineacetamide] | 9.5 |  |
| Cc1cccc(C)c1NC(=O)c1ccc(NC(=O)CN2CCCC2)cc1 [Example 16, N-[4-([(2,6-Dimethylphenyl)amino]carbonyl)phenyl]-1-pyrrolidineacetamide] | 3.75 |  |
| Cc1cccc(C)c1NC(=O)c1ccc(NC(=O)CN2CCN(C)CC2)cc1 [Example 17, N-[4-([(2,6-Dimethylphenyl)amino]carbonyl)phenyl]-4-methyl-1-piperazineacetamide] | > 112 |  |
| Cc1cccc(C)c1NC(=O)c1ccc(NC(=O)CN2CCOCC2)cc1 [Example 18, N-[4-([(2,6-Dimethylphenyl)amino]carbonyl)phenyl]-4-morpholineacetamide] | 17.5 |  |
| Cc1cccc(C)c1NC(=O)c1ccc(NC(=O)CCN2CCCC2)cc1 [Example 19, N-[4-([(2,6-Dimethylphenyl)amino]carbonyl)phenyl]-1-pyrrolidinepropanamide] | 26.9 |  |
| Cc1cccc(C)c1NC(=O)c1ccc(NC(=O)C(C)N2CCCC2)cc1 (stereo not drawn) [Example 20] | 42.5 |  |
| Cc1cccc(C)c1NC(=O)c1ccc(NC(=O)CN2CCCCCC2)cc1 [Example 21, N-[4-([(2,6-Dimethylphenyl)amino]carbonyl)phenyl]hexahydro-1-H-azepine-1-acetamide] | 5.1 |  |
| CCNCC(=O)Nc1ccc(C(=O)NC(C)c2ccccc2)cc1.Cl (stereo not drawn) [Example 22, 4-([(Ethylamino)acetyl]amino)-N-(1-phenylethyl)benzamide hydrochloride] | 28 |  |
| CCNCC(=O)Nc1ccc(C(=O)Nc2c(C)cccc2C)cc1 [Example 23, N-(2,6-Dimethylphenyl)-4-([(ethylamino)acetyl]amino)benzamide] | 3.2 |  |
| O=C1NC(=O)C(c2ccccc2)(c2ccccc2)N1 [phenytoin] |  | plasma level at which ataxia is obvious [2]: 30 µg/mL; plasma level at which lethargy is apparent [2]: about 40 mcg/ml; plasma level at which nystagmus is seen [2]: around 20 mcg/ml; plasma level at which seizures are controlled [2]: ≥ 10 µg/mL |
